Experimental data taken from patent publication US10240124B2, “Cell culture substrate comprising a laminin and a cadherin” (BioLamina AB, priority 2011, dated 2019).

Assays:
human ES cells (HS181) = assay: Cell adhesion assay, Crystal Violet (Example 1); type: cell-based
Method: Ninety-six-well tissue cell culture plates were coated overnight at 4° C. with sterile solutions of the ECM proteins mouse LN-111 (Invitrogen), human recombinant LN-511, and human recombinant LN-521, all at a concentration of 30 μg/ml (5 μg/cm^2). For control cells, BD Matrigel™ hESC qualified (BD Biosciences) was used according to the manufacturer's instructions.
The assay was performed as described (Extracellular Matrix Protocols, 2000). Briefly, 96-well plates were coated by extracellular matrix proteins as described above and blocked by O3 medium containing bovine serum albumin. The ES cells were plated at a cell density of 600 cell/mm^2 upon extracellular matrix-coated plates and were left to adhere for either 1 hour or 1 day at the cell incubator. Non-adherent cells were washed away, and adherent cells were fixed for 20 min by 5% glutaraldehyde, stained by 0.1% Crystal Violet.

Human ES cells [1] = assay: FACS analysis for OCT4 (Example 1); type: cell-based; details: after several single cell suspension passages, O3 medium, FIG. 9 and 10
Method: OCT4 expression was analyzed as described in Ludwig, T. E. et al. Derivation of human embryonic stem cells in defined conditions. Nat. Biotechnol. 24, 185-187 (2006). Cells were run on FACSCalibur Flow Cytometer (Becton Dickinson). Data were analyzed with CellQuest software (Becton Dickinson).

Human ES cells [2] = assay: Real-time quantitative RT-PCR of Oct4 and Nanog (Example 1); type: cell-based; details: FIG. 11
Method: Total RNA was isolated and cDNA was synthesized as described in Rodin et al., Nature Biotechnol., vol. 28, pp. 611-615 (2010). Real-time quantitative RT-PCR Taqman assays were performed using the Applied Biosystems 7300 Real-Time PCR System. All reactions were done in quadruplicate with predeveloped gene expression assay mix (Applied Biosystems) containing primers and a probe for the mRNA of interest. Additional reactions for each experiment included predeveloped gene expression assay mix for GAPDH, used to normalize the RNA input. All data were analyzed with 7300 System SDS Software version 1.4.

hES cells = assay: Cell survival assay, 24 hours (Example 2); type: cell-based, human
Method: Briefly, 96-well plates were coated by extracellular matrix proteins as described above and blocked by O3 medium containing bovine serum albumin. The ES cells were plated at cell density of 50,000 cells/cm^2 onto extracellular matrix-coated plates and left to adhere for 1 hour in a cell incubator. After that the plates were washed 3 times with the medium to remove the non-adherent cells, and then the adherent cells were fixed for 20 minutes by 5% glutaraldehyde, stained by 0.1% Crystal Violet. (Kebo Lab, Spanga, Sweden, http://www.kebolab.se). After one hour and 3 washes with water, Crystal Violet was extracted with 10% acetic acid and quantified by measuring optical density at 570 nm. All the experiments were performed in quadruplicate.
The survival assay was performed as described for the cell adhesion assay above, except that the cells were left in the cell incubator for 24 hours. For inhibition of survival assay, the cells were kept in a medium with function blocking antibodies at the concentrations recommended by the manufacturer or pathway inhibitors at concentrations indicated in the text for 30 minutes, and then plated on the coated dishes. All the experiments were performed in quadruplicate.
Pluripotent hES cells express α1, α5, β1, β2 and γ1 laminin chains. To compare the adhesion and clonal survival of hES cells plated from single cell suspension to different coating substrata, hES cells growing as monolayers on LN-511 or as clusters on a feeder layer were trypsinized into single cell suspension in O3 medium and plated on cell culture dishes coated with Matrigel, LN-111, LN-511, LN-521 or a mixture of LN-511 and LN-521, in the absence or presence of a ROCK inhibitor (Y-27632) and analyzed after 24 hours.

[3] = system: human pluripotent cells (HS181, HS401, H1, ChiPSW, CutB1.2); assay: Long-term self-renewal culture of hES and iPS cells on LN-521 (Example 2); type: cell-based; details: for passages of proliferation on LN-521: O3 medium
myosin light chain (MLC) = assay: Western blot of phosphorylated myosin light chain; type: cell-based, human; details: one and six hours after plating, FIG. 12 and 13
Method: HS 181 cells were trypsinized into single cell suspension as described above. For inhibition experiments, the cells were kept in O3 medium with blocking antibodies or pathway inhibitors for 30 minutes and then 450K cells were plated on 35 mm dishes precoated with the appropriate matrix coating. For other experiments, same number of cells was plated directly after trypsinization. […] After two washings in ice-cold PBS, the plates with cells were snap frozen in liquid nitrogen and stored at −80° C. To prepare samples for western blots and ELISA, the plates were slowly thawed and kept on ice with 100-150 μl of lysis buffer (50 mM Tris-HCl, pH7.5, 150 mM NaCl, 0.5% deoxycholate, 0.5% SDS, 1% Triton X-100, 1% Igepal, Complete™ (Roche) and Phospho-Stop™ (Roche)) on top. Then, the cells were scraped, pipetted and sheared through a 27 G ¾″ needle. After that, the cell pellets were clarified by centrifugation at 16,100 rcf for 15 minutes at 4° C. For western blots, 4-12% gradient gels were used for SDS electrophoresis and the proteins were transferred to PVDF membranes. The membrane was hybridized with the antibody of interest according to the manufacturer's instructions. […] For the densitometry analysis the films were scanned at 2,400 dpi and analyzed by the Chemilmager5500 program (1 D-Multi Line densitometry mode). […]

Integrin α6β1 = Integrin α6β1 (Homo sapiens, UniProt P05556+P23229); details: cited from earlier work
Integrin α6β1, sequence (P23229 24-1130): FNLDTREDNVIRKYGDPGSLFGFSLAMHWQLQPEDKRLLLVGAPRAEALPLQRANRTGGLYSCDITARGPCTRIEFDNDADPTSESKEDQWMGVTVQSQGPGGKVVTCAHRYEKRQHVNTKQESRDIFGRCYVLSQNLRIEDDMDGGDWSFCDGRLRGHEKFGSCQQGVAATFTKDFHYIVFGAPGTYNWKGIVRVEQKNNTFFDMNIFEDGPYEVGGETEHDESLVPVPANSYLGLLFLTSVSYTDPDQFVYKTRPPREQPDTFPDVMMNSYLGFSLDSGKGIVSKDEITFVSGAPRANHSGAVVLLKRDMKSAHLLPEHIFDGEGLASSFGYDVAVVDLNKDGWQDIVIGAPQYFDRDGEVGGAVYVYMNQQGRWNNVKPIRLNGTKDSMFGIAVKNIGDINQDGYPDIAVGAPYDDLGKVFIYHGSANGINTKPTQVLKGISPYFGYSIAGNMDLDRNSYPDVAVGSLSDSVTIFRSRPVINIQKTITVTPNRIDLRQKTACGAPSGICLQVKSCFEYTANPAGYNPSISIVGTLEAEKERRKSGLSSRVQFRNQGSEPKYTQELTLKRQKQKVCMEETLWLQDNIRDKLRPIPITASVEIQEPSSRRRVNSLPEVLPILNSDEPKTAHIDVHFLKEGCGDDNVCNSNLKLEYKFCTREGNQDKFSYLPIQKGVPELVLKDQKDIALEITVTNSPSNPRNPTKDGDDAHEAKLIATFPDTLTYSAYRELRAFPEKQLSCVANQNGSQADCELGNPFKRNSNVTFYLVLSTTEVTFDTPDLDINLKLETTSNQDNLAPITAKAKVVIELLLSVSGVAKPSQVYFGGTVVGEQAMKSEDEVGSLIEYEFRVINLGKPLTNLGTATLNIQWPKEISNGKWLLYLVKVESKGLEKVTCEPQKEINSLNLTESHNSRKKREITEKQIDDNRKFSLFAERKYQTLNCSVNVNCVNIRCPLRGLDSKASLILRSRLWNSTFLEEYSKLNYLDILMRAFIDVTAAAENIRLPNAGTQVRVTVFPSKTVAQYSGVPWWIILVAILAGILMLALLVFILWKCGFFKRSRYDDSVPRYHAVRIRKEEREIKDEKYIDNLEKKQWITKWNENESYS
Integrin α6β1, sequence (P05556 21-798): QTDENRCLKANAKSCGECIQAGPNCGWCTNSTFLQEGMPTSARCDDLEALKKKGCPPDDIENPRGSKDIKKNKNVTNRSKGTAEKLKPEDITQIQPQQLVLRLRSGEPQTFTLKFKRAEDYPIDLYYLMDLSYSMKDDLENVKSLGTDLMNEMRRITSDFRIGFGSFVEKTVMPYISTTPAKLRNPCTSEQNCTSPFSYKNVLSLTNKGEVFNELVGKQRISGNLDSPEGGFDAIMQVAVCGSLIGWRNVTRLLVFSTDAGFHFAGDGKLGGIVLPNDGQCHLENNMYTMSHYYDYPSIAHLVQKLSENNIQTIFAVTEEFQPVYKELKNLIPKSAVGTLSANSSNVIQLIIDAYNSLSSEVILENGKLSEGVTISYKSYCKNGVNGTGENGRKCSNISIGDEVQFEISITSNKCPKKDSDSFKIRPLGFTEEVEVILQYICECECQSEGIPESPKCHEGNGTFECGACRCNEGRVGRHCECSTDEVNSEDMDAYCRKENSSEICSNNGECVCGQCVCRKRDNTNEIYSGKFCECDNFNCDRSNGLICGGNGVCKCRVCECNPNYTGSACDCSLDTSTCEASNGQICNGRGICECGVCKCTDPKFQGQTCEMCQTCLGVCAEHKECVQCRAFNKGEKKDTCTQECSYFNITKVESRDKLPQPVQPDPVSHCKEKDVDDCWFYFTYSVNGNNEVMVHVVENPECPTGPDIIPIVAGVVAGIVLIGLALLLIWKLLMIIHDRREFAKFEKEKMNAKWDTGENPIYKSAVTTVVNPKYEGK

Substance: LN-521: protein formed by joining α5, β2 and γ1 laminin chains; human recombinant, produced in HEK293 cells
- adhesion at 1 day without additives compared with all dishes including the ROCK inhibitor (human ES cells (HS181); FIG. 7): similar
- cells remaining attached / surviving 24 hours after plating (human ES cells (HS181); HS181 completely dissociated, O3 medium without any additives, FIG. 4): survived
- adhesion of human ES cells at 1 hour (human ES cells (HS181); O3 medium without any additives, without Y-27632, FIG. 6): roughly the same
- adhesion at 1 day relative to Matrigel without additives (human ES cells (HS181); without additives, FIG. 7): 20 times
- percentage of Oct4 positive (pluripotent) cells compared with Matrigel (Human ES cells [1]): much higher percentage
- number of mRNA transcripts of Oct4 and Nanog compared with Matrigel (Human ES cells [2]): higher numbers of transcripts
- survival of Y-27632 treated human ES cells compared with Matrigel (hES cells; 40,000 cells per 1 cm^2, 10 μM Y-27632): survived better
- survival after 24 hours relative to LN-511 (hES cells; O3 medium): three times higher
- survival after 24 hours relative to Matrigel (hES cells; O3 medium): approximately 20 times
- survival of hES cells 24 hours after plating from single cell suspension (hES cells; O3 medium, absence of ROCK inhibitor): did so as single cells
- survival relative to Matrigel without exogenous bFGF (hES cells; exogenous bFGF removed from the O3 medium): 20 times
- survival 24 hours after plating in medium lacking all growth factors of the TeSR1 formulation (hES cells; no bFGF, LiCl, GABA, pipecolic acid, TGFβ): survived
- passages cultured on LN-521 ([3]; ChiPSW iPS cells, mTeSR1): 3 passages
- passages cultured on LN-521 ([3]; CutB1.2 iPS cells, mTeSR1): 5 passages
- passages of proliferation on LN-521 ([3]; H1 cells, 6 months): ≥ 15 passages
- passages cultured on LN-521 ([3]; H1 cells, TeSR2, xeno-free, 5 months): 12 passages
- passages of proliferation on LN-521 ([3]; HS181 cells, 9 months): at least 24 passages
- passages of proliferation on LN-521 ([3]; HS401 cells, 2 months): ≥ 5 passages
- passages cultured on LN-521 ([3]; HS401 cells, TeSR2, xeno-free, 1.5 months): 4 passages
- phosphorylation of MLC compared with cells on Matrigel and LN-111 (myosin light chain (MLC)): even higher
- binding affinity of integrin α6β1 compared with LN-111 (Integrin α6β1): higher than that for LN-111
